Entries after “also recorded” stand apart in the source; their conditions may differ.
Experiments:
[1] = tested on: mice; assay: Acute toxicity in mice, LD50 (method of Reed and Muench); assay type: in vivo; details: mice (summary table)
Description: (§1) 1. Acute toxicity in mice
(§2) Albino mice of 18 to 25 g. The LD50 was determined in accordance with the method of Reed and Muench.
(§3) The acute toxicity in mice was determined in accordance with the method of REED and MUENCH, in a modified form (Reed L. J. and Muench H., Am. J. Hyg., 27, 493, 1938). The effect on the average bleeding time was determined by the Roskam technique modified by Laporte (Laporte J., Chemotherapia, 3, 62, 1961).

[2] = Partition coefficient butanol/water
[3] = tested on: average bleeding time (A.B.T.); assay: Activity-time relationship of the decrease in the A.B.T.; assay type: in vivo, rabbits; details: 5 micromols/kg
Description: 3. Activity-time relationship

[4] = tested on: capillary permeability; assay: Protective effect on the capillaries: capillary permeability, BEACH-STEINITZ method in a modified form; assay type: in vivo; details: intraperitoneally, mice; in words
Description: 4. Protective effect on the capillaries

[5] = tested on: average bleeding time (A.B.T.); assay: Effect on the average bleeding time (A.B.T.), Roskam technique modified by Laporte; assay type: in vivo; details: one hour after administration, rabbits
Description: 2. Effect on the average bleeding time
as §3

[6] = Acute toxicity in mice, LD50 (method of Reed and Muench); assay type: in vivo; details: mouse, in vivo, po
Description: as §1, §2, §3

## Sodium methyl-p-dihydroxybenzenesulphonate
[1]; p.o.
  LD50: > 1,000 mg/kg
[2]
  Partition coefficient butanol/water: 0.87

## lithium (tertiary butyl)-p-dihydroxybenzenesulphonate
[1]; i.v.
  LD50: 1,000 mg/kg
[2]
  Partition coefficient butanol/water: 1.28

## Diethylamine (tertiary butyl)-p-dihydroxybenzenesulphonate
[2]
  Partition coefficient butanol/water: 2.38
[3]; 1 hour after intravenous administration
  % decrease in the A.B.T.: 42%
[3]; 2 hours after intravenous administration
  % decrease in the A.B.T.: 43.5%
[3]; 4 hours after intravenous administration
  % decrease in the A.B.T.: 41.0%
[3]; 8 hours after intravenous administration
  % decrease in the A.B.T.: 34.8%
[3]; 16 hours after intravenous administration
  % decrease in the A.B.T.: 33.0%
[3]; 24 hours after intravenous administration
  % decrease in the A.B.T.: 22.5%
[3]; 48 hours after intravenous administration
  % decrease in the A.B.T.: 14.0%
[3]; in words
  duration of effect: lasts for a long time; also recorded: lasts for a markedly longer time than the products already described hitherto
[4]
  capillary permeability: marked decrease in the capillary permeability
[5]; 0.625 micromols/kg
  Decrease in the A.B.T. in %: 7%
[5]; 1.25 micromols/kg
  Decrease in the A.B.T. in %: 25%
[5]; 2.5 micromols/kg
  Decrease in the A.B.T. in %: 34%
[5]; 5.0 micromols/kg
  Decrease in the A.B.T. in %: 42%
[5]; 7.05 (sic) micromols/kg
  Decrease in the A.B.T. in %: 49%
[5]; 10.0 micromols/kg
  Decrease in the A.B.T. in %: 55%

## Ammonium (tertiary butyl)-p-dihydroxybenzenesulphonate
[1]; i.v.
  LD50: 600 mg/kg
[2]
  Partition coefficient butanol/water: 0.42

## Calcium (tertiary butyl)-p-dihydroxybenzenesulphonate
[1]; p.o.
  LD50: 2,337 mg/kg
[2]
  Partition coefficient butanol/water: 1.36

## CC(C)(C)c1cc(O)c(S(=O)(=O)O)cc1O [cyclohexylamine (tertiary butyl)-p-dihydroxybenzenesulphonate]
[6]
  LD50: 1000 mg/kg
